Assay results as given in publication PMC3285241 (ACS chemical neuroscience, 2011).
Like-named read-outs stand apart in the source and are kept apart here.

What was measured:
[1] = biological target: Cav3.2 channel expressed in HEK293 cells (Homo sapiens, UniProt O95180); assay: T-type calcium channel cell-based FDSS Ca2+ flux
Cav3.3 = Cav3.3 (Homo sapiens, UniProt Q9P0X4); assay: Cav3.3 IonWorks Quattro population patch clamp electrophysiology; type: cell-based
[2] = tested on: 68 GPCRs, ion channels and transporters; assay: Ricerca Lead Profiling Screen; details: 10 μM; significant = inhibition of radio ligand binding > 50%
sodium channel site 2 = assay: Ricerca Lead Profiling Screen, sodium channel site 2; type: binding; details: 10 μM
sigma 1 = sigma 1 (Homo sapiens, UniProt Q99720); assay: Ricerca Lead Profiling Screen, sigma 1; type: binding; details: 10 μM
Sequence of sigma 1 (Q99720 whole entry): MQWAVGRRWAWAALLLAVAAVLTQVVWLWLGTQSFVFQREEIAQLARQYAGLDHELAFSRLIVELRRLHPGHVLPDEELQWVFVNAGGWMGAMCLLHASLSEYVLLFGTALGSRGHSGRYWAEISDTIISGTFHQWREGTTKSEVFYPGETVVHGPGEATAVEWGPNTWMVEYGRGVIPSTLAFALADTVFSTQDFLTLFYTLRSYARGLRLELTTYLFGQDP

L-type calcium channels = assay: Ricerca Lead Profiling Screen, L-type calcium channel; type: binding; details: @10 μM
N-type calcium channels = N-type calcium channels (Rattus norvegicus, UniProt Q02294); assay: Ricerca Lead Profiling Screen, N-type calcium channel; type: binding; details: read-out: % inhibition, N-type calcium channels
hERG = hERG (Homo sapiens, UniProt Q12809); assay: Ricerca Lead Profiling Screen, hERG; type: binding
Sequence of hERG (Q12809 whole entry): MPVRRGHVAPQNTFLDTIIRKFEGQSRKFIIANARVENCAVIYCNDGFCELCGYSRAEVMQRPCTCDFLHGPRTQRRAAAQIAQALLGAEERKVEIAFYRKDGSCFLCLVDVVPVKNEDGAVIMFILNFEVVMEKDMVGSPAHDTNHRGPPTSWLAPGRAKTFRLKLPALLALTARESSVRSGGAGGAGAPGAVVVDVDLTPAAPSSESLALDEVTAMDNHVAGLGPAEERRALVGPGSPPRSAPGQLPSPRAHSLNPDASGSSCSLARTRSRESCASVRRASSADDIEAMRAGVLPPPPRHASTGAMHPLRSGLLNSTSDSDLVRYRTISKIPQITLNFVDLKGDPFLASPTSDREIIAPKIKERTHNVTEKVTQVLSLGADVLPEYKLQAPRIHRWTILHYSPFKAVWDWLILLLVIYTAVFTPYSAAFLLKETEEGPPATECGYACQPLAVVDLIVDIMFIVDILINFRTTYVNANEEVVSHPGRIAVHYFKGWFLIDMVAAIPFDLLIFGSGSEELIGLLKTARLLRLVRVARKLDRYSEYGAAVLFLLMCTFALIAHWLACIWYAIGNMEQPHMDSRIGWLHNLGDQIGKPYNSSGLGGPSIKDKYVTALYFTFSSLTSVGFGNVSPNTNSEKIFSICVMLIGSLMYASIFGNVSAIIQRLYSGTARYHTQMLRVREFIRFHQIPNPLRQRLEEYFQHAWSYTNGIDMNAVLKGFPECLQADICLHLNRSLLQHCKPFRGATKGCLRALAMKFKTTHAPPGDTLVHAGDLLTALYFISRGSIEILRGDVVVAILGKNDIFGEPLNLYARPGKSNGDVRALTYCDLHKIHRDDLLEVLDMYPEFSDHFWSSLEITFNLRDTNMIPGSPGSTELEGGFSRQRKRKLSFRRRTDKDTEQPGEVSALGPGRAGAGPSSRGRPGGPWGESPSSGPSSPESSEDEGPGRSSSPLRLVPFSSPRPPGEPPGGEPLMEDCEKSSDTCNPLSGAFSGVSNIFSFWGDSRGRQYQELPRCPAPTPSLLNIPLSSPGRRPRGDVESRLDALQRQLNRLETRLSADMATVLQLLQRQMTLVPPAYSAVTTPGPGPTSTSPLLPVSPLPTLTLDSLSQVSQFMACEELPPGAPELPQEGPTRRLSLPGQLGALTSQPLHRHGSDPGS

[3] = Plasma-brain exposure profile PK study; type: in vivo; details: male, Sprague-Dawley, rat, intraperitoneal, 10 mg/kg
[4] = tested on: T-type calcium currents in STN neurons; assay: Brain slice voltage clamp, T-type calcium current in STN neurons; type: cell-based, rat
[5] = tested on: low threshold spike (LTS) in STN neurons; assay: Brain slice current clamp, low threshold spike; type: cell-based, rat; details: 3 uM with 0.5 uM TTX, n = 5; control 18.1 ± 2.2 mV
[6] = tested on: rebound burst activity in STN neurons; assay: Brain slice current clamp, rebound burst activity in STN neurons; type: cell-based, rat
[7] = tested on: haloperidol-induced catalepsy in rats; assay: Haloperidol-induced catalepsy; type: in vivo, rat; details: 1, 3, 10 and 30 mg/kg p.o.; haloperidol 0.75 mg/kg; comparable to A2A inhibitor 56.6 mg/kg p.o.
[8] = Brain and plasma concentrations across the catalepsy dose range; type: in vivo; details: rat
in vivo = details: male, Sprague-Dawley, rat, plasma, iv, 1 mg/kg
in vitro [9] = details: rat, plasma, pH 7.4
in vitro [10] = details: human, plasma, pH 7.4
in vitro [11] = details: rat, liver microsomes, pH 7.4
in vitro [12] = details: human, liver microsomes, pH 7.4
P450 2C9 = P450 2C9 (Homo sapiens, UniProt P11712); assay: P450 inhibition 2C9
Sequence of P450 2C9 (P11712 whole entry): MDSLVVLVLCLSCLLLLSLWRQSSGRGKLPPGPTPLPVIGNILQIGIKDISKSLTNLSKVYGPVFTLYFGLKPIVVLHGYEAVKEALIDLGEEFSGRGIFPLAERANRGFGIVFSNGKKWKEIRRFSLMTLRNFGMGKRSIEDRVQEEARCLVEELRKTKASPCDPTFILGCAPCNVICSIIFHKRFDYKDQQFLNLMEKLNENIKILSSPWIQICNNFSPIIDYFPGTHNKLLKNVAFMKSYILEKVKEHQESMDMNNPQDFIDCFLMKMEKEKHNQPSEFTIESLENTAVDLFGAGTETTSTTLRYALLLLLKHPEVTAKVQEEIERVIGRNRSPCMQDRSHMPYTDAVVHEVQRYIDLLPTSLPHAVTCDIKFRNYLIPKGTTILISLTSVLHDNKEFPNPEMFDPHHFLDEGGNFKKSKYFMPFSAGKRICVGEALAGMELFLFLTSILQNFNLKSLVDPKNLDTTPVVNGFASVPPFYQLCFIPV

P450 1A2 = biological target: T1, P450 1A2 (Homo sapiens, UniProt P05177); assay: P450 inhibition 1A2
T1 sequence (P05177 1-516): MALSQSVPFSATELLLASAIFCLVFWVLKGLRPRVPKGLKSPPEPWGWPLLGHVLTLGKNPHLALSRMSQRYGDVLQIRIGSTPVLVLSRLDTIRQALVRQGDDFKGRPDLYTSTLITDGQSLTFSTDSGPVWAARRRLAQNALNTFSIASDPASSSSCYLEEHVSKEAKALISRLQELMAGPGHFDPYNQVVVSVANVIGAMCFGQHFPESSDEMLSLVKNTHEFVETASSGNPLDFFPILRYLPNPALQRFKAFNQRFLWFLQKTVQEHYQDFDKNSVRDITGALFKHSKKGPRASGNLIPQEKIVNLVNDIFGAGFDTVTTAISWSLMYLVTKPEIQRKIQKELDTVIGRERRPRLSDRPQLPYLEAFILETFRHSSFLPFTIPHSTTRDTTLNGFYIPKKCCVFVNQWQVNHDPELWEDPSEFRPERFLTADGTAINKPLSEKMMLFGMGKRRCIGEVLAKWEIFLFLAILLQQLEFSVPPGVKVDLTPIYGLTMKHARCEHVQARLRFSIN

P450 2D6 = P450 2D6 (Homo sapiens, UniProt P10635); assay: P450 inhibition 2D6
Sequence of P450 2D6 (P10635 whole entry): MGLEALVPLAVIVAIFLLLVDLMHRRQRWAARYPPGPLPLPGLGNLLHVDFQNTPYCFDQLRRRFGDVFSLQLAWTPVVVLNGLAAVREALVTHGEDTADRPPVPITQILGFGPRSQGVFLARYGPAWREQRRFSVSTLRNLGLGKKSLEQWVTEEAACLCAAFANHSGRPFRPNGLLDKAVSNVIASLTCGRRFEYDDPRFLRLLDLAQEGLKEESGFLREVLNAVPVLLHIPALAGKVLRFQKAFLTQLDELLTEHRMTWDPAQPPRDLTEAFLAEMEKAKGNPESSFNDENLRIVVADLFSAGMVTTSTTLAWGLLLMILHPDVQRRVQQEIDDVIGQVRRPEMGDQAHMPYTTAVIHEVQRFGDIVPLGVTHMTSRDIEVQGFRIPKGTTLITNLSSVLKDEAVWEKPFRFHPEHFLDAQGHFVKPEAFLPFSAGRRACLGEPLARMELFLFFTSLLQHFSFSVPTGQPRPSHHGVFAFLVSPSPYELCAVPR

[13] = Intrinsic clearance in rat liver microsomes; details: obtained from rat liver microsomes
[14] = no reference given; cited from earlier work
Cav3.2 = Cav3.2 (Homo sapiens, UniProt O95180); assay: Cav3.2 IonWorks Quattro population patch clamp electrophysiology; type: cell-based; details: Cav3 subtype not stated
Sequence of Cav3.2 (O95180 whole entry): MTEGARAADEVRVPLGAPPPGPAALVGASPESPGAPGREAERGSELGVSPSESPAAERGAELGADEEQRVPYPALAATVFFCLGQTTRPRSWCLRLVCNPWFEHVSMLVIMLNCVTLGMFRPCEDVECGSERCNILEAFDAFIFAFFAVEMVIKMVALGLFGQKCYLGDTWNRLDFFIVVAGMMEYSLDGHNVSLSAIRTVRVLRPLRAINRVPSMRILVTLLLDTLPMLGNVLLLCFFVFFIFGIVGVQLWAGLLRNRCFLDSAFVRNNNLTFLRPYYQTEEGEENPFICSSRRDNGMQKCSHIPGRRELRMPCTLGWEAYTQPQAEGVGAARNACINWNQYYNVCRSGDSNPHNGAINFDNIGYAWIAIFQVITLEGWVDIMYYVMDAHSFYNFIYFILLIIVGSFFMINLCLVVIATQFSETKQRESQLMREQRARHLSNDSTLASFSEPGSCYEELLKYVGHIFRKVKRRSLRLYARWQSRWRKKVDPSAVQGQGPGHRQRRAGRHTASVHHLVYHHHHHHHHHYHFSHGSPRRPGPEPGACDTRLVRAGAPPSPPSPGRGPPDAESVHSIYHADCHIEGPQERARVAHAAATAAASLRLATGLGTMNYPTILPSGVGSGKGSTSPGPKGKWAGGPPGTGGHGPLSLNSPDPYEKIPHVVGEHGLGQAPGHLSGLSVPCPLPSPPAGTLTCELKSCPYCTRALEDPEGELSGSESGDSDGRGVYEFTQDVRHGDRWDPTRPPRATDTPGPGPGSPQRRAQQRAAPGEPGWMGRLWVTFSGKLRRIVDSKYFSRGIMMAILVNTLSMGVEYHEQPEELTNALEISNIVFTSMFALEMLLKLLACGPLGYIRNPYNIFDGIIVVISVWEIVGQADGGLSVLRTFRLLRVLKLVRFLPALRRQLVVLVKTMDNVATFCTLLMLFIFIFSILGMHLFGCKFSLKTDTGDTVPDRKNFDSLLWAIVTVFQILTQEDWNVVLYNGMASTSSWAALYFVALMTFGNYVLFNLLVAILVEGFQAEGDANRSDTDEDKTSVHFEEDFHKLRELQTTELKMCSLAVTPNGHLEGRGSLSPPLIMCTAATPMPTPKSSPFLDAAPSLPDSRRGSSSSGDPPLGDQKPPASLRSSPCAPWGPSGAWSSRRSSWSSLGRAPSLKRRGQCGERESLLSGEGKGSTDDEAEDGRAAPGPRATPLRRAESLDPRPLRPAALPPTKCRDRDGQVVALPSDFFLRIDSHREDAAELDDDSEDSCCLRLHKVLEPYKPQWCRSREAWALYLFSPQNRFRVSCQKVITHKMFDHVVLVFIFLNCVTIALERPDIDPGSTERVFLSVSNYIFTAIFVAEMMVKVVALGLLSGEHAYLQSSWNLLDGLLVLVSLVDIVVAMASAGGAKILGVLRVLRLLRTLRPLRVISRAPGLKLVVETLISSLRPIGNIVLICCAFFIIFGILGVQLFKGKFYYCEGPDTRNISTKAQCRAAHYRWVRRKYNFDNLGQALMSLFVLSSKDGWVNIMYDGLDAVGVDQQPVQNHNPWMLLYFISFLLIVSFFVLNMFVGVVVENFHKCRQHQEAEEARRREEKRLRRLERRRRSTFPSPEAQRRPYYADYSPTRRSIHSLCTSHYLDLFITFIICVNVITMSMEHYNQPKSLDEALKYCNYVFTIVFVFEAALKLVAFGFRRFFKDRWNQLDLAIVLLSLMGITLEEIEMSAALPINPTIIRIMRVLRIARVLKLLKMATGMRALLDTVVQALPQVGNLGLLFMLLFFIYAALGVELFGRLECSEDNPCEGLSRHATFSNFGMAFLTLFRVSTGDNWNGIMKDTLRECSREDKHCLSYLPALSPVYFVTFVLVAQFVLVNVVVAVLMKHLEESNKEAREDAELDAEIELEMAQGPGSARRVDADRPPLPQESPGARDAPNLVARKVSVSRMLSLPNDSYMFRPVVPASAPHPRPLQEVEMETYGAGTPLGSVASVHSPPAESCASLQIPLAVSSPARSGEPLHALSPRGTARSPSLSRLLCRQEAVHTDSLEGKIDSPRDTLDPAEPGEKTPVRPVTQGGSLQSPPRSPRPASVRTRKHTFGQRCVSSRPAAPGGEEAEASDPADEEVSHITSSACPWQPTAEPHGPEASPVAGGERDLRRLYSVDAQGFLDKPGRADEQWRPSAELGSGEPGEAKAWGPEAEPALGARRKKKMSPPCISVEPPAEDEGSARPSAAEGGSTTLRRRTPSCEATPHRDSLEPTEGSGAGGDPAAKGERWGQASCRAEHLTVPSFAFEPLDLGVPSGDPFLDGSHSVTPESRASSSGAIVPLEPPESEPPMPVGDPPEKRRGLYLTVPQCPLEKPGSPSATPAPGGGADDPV

[15] = read-out: IC50 in Ca2+ fluorescence assay, Cav3.2 HEK293, full CRC

Sequence of Cav3.2 channel expressed in HEK293 cells (O95180 whole entry): as above

Compound `CC(C)(C)CCN1CCC[C@H](NC(=O)COc2ccc(F)cc2Cl)C1` [compound 23] has an IC50 [1, 15] of 2.4 µM.
In the case of `CC(C)(C)CCN1CC2C(CNC(=O)c3cc(Cl)cc(Cl)c3)C2C1` (stereo not shown) [ML218, 3,5-dichloro-N-((3-(3,3-dimethylbutyl)-3-azabicyclo[3.1.0]hexan-6-yl)methyl)benzamide], the IC50 [1] is reported as 0.15 µM, the IC50 (Cav3.3) is reported as 0.274 µM and the “Number of targets significantly bound in 68-assay panel” value [2] is reported as “only significantly bind two targets”. The “Binding to sodium channel site 2” value (sodium channel site 2) was “significantly bind”, the “Binding to sigma 1” value (sigma 1) was “significantly bind” and the “% inhibition, L-type calcium channels” value (L-type calcium channels) was 17%. For the same compound, the inhibition at 10 µM (N-type calcium channels) was 49%, the inhibition at 10 µM (hERG) was 48% and the Kp [3] was 7.4. The “T-currents, % of the control value” ([4]; 3 uM, n = 7) was 45.1 ± 5.1%, the “Reduction of T-type Ca2+ current” value ([4]; 3 μM, voltage clamp, bath application) was ~ 45% and the “Amplitude of LTS” value [5] was 8.7 ± 2.1 mV. For the same compound, the “Depression of rebound burst activity” value ([6]; 3 μM, -100 pA followed by depolarizing current) was > 60%, the “Number of rebound spikes” value ([6]; 3 uM, n = 6, control 16.0 ± 2.8 spikes/burst) was 5.7 ± 0.5 spikes/burst and the “Reversal of haloperidol-induced catalepsy” value [7] was “reversed cataleptic behavior”. For the same compound, the “[brain]” value ([8]; 3 mg/kg p.o.) was 1.66 µM, the “[plasma]” value ([8]; 3 mg/kg p.o.) was 98 nM and the “[brain]” value ([8]; 10 mg/kg p.o.) was 5.03 µM. The “[plasma]” value ([8]; 10 mg/kg p.o.) was 282 nM, the “[brain]” value ([8]; 30 mg/kg p.o.) was 17.7 µM and the “[plasma]” value ([8]; 30 mg/kg p.o.) was 1200 nM. For the same compound, the MRT (in vivo) was ~7 h, the clearance (in vivo) was 56 mL/min/kg and the half-life (in vivo) was 7 h. The fraction unbound at 4 h (in vitro [9]) was 0.091, the fraction unbound at 4 h (in vitro [10]) was 0.033 and the CLint scaled at 1 μM (in vitro [11]) was 115 mL/min/kg. For the same compound, the CLint scaled at 1 μM (in vitro [12]) was 12.7 mL/min/kg, the IC50 (P450 2C9) was > 30 µM and the IC50 (P450 1A2) was 10.8 µM. The IC50 (P450 2D6) was 1.7 µM and the “predicted hepatic clearance CLHEP” value [13] was 43 mL/min/kg.
For `COCC(=O)O[C@]1(CCN(C)CCCc2nc3ccccc3[nH]2)CCc2cc(F)ccc2[C@@H]1C(C)C` [compound 3, mibefradil], the “Penetration into CNS” value [14] is listed as “poor penetration into CNS”.
In the case of `CC(C)(C)Cc1nnc(NC(=O)COc2ccc(Cl)cc2Cl)o1` [compound 18], the IC50 [1, 15] is reported as 0.81 µM and the “Potency in patch EP relative to Ca2+ fluorescence, in words” value (Cav3.2) is reported as “significant right-shift in potency”.
In the case of `CC(C)(C)CCN1CCC[C@@H](NC(=O)COc2ccc(F)cc2Cl)C1` [CID45115614], the “T-type Ca2+ channel inhibition, result in words” value ([1]; 3-amino piperidine library) is reported as “devoid of activity”.
